Reference: PubChem BioAssay AID328 (DTP/NCI, 2004)
Values joined by “and” are separate entries in the source; they are usually repeats but may differ in a detail not shown here. Equal values may be shown once. Inconclusive results and toxic doses are left out. The calls were made as follows: active = survival T/C of 150% or more; inactive = T/C below 125% in these data. Non-standard residues stand in square brackets, D forms with d. Residues, ends and D or L forms follow the SMILES beside them. ξ: configuration not given here. *: point of attachment. Cbz = O=C(OCc1ccccc1)*; ξK = NCCCCC(N)C(=O)O

Test system: BDF1 mice, P388 leukemia ip, median survival T/C
Assay: NCI In Vivo Anticancer Drug Screen. Data for tumor model P388 Leukemia (intraperitoneal) in B6D2F1 (BDF1) mice
Conditions: endpoint: median survival time, higher = longer survival
Method in brief: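 Read-out is survival of treated animals expressed relative to the vehicle group, as a T/C ratio.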

[1] = dose: 100.0 mg/kg/injection, schedule: Q01DX001 (ip), vehicle: other
[2] = dose: 100.0 mg/kg/injection, schedule: Q04DX003 (ip), vehicle: Klucel (hydroxypropylcellulose) (HPC)
[3] = dose: 200.0 mg/kg/injection, schedule: Q01DX001 (ip), vehicle: other
[4] = dose: 200.0 mg/kg/injection, schedule: Q04DX003 (ip), vehicle: Klucel (hydroxypropylcellulose) (HPC)
[5] = dose: 400.0 mg/kg/injection, schedule: Q01DX001 (ip), vehicle: other
[6] = dose: 100.0 mg/kg/injection, schedule: Q01DX009 (ip), vehicle: saline with Tween-80
[7] = dose: 100.0 mg/kg/injection, schedule: Q04DX003 (ip), vehicle: saline with Tween-80
[8] = dose: 200.0 mg/kg/injection, schedule: Q01DX009 (ip), vehicle: saline with Tween-80
[9] = dose: 200.0 mg/kg/injection, schedule: Q04DX003 (ip), vehicle: saline with Tween-80
[10] = dose: 400.0 mg/kg/injection, schedule: Q01DX009 (ip), vehicle: saline with Tween-80
[11] = dose: 400.0 mg/kg/injection, schedule: Q04DX003 (ip), vehicle: saline with Tween-80

Measured: T/C

N=[N+]=CC(=O)OCC(N)C(=O)O (stereo not drawn)
inactive: dose: 10.0 mg/kg/injection, schedule: Q01DX010 (ip), vehicle: water 120 % of control | dose: 15.0 mg/kg/injection, schedule: Q01DX010 (ip), vehicle: water 120 % of control | dose: 25.0 mg/kg/injection, schedule: Q01DX010 (ip), vehicle: saline 115 % of control
active: dose: 3.13 mg/kg/injection, schedule: Q01DX010 (ip), vehicle: saline 150 % of control | dose: 6.25 mg/kg/injection, schedule: Q01DX010 (ip), vehicle: saline 150 % of control and 165 % of control | dose: 12.5 mg/kg/injection, schedule: Q01DX010 (ip), vehicle: saline 195 % of control and 200 % of control

C1SCSCS1
inactive: dose: 75.0 mg/kg/injection, schedule: Q01DX009 (ip), vehicle: Klucel (hydroxypropylcellulose) (HPC) 118 % of control | [1] 109 % of control | [2] 100 % of control | dose: 150.0 mg/kg/injection, schedule: Q01DX009 (ip), vehicle: Klucel (hydroxypropylcellulose) (HPC) 100 % of control | [3] 90 % of control | [4] 109 % of control | dose: 300.0 mg/kg/injection, schedule: Q01DX009 (ip), vehicle: Klucel (hydroxypropylcellulose) (HPC) 113 % of control | [5] 100 % of control | dose: 400.0 mg/kg/injection, schedule: Q04DX003 (ip), vehicle: Klucel (hydroxypropylcellulose) (HPC) 113 % of control

CCC(=O)N(C)[C@@H](C)C(=O)O[C@H]1CC(=O)N(C)c2cc(cc(OC)c2Cl)C/C(C)=C/C=C[C@@H](OC)[C@@]2(O)C[C@H](OC(=O)N2)[C@@H](C)[C@@H]2O[C@@]12C
inactive: dose: 0.2 micrograms/kg/injection, schedule: Q01DX009 (ip), vehicle: saline 120 % of control | dose: 12.5 micrograms/kg/injection, schedule: Q01DX009 (ip), vehicle: saline 104 % of control
active: dose: 1.6 micrograms/kg/injection, schedule: Q01DX009 (ip), vehicle: saline 154 % of control | dose: 3.1 micrograms/kg/injection, schedule: Q01DX009 (ip), vehicle: saline 150 % of control

O=c1[nH]cn[nH]1
inactive: dose: 100.0 mg/kg/injection, schedule: Q01DX001 (ip), vehicle: saline sonified 122 % of control | dose: 200.0 mg/kg/injection, schedule: Q01DX001 (ip), vehicle: saline sonified 95 % of control | dose: 400.0 mg/kg/injection, schedule: Q01DX001 (ip), vehicle: saline sonified 90 % of control

CC1=C(O)/C(=C/C(C)CCC/C(C)=C/CC/C(C)=C/CCc2ccoc2)OC1=O (stereo not drawn)
inactive: dose: 0.31 mg/kg/injection, schedule: Q01DX009 (ip), vehicle: saline with Tween-80 100 % of control | dose: 0.62 mg/kg/injection, schedule: Q01DX009 (ip), vehicle: saline with Tween-80 104 % of control | dose: 2.5 mg/kg/injection, schedule: Q01DX009 (ip), vehicle: saline with Tween-80 98 % of control | dose: 5.0 mg/kg/injection, schedule: Q01DX009 (ip), vehicle: saline with Tween-80 90 % of control

NCC(=O)NC(CCCCNC(=O)OCc1ccccc1)C(=O)O (stereo not drawn) (H-Gly-[ξK](Cbz)-OH)
inactive: dose: 12.5 mg/kg/injection, schedule: Q01DX005 (ip), vehicle: saline with Tween-80 106 % of control | dose: 25.0 mg/kg/injection, schedule: Q01DX005 (ip), vehicle: saline with Tween-80 104 % of control

O=[N+]([O-])c1cccnc1Oc1cccc(C(F)(F)F)c1
inactive: dose: 50.0 mg/kg/injection, schedule: Q01DX001 (ip), vehicle: other 100 % of control | [1] 95 % of control | [3] 86 % of control | [5] 95 % of control

Oc1ccc(C=Nc2ccccc2N=Cc2ccc(O)c(O)c2)cc1O
inactive: [6] 109 % of control | [7] 110 % of control | [8] 109 % of control | [9] 105 % of control | [10] 104 % of control | [11] 110 % of control

CC(=N\O)/C(C)=N/O.CC(=N\O)/C(C)=N/O.[Cu]
inactive: dose: 3.0 mg/kg/injection, schedule: Q01DX009 (ip), vehicle: Klucel (hydroxypropylcellulose) (HPC) 100 % of control | dose: 6.25 mg/kg/injection, schedule: Q04DX003 (ip), vehicle: Klucel (hydroxypropylcellulose) (HPC) 118 % of control | dose: 12.5 mg/kg/injection, schedule: Q04DX003 (ip), vehicle: Klucel (hydroxypropylcellulose) (HPC) 118 % of control

Cc1cc(C)n(CO)n1
inactive: dose: 25.0 mg/kg/injection, schedule: Q01DX009 (ip), vehicle: Klucel (hydroxypropylcellulose) (HPC) 96 % of control | dose: 50.0 mg/kg/injection, schedule: Q01DX009 (ip), vehicle: Klucel (hydroxypropylcellulose) (HPC) 107 % of control | [2] 108 % of control | [4] 100 % of control

CCOC(=O)CC/[N+]([O-])=C/c1ccccc1
inactive: dose: 12.5 mg/kg/injection, schedule: Q01DX009 (ip), vehicle: other 97 % of control | dose: 25.0 mg/kg/injection, schedule: Q01DX009 (ip), vehicle: other 112 % of control | dose: 50.0 mg/kg/injection, schedule: Q01DX009 (ip), vehicle: other 92 % of control | dose: 100.0 mg/kg/injection, schedule: Q01DX009 (ip), vehicle: other 97 % of control | dose: 200.0 mg/kg/injection, schedule: Q01DX009 (ip), vehicle: other 104 % of control

Cc1ccccc1N=P(c1ccccc1)(c1ccccc1)c1ccccc1
inactive: dose: 50.0 mg/kg/injection, schedule: Q01DX009 (ip), vehicle: gum acacia 88 % of control | dose: 100.0 mg/kg/injection, schedule: Q01DX009 (ip), vehicle: gum acacia 88 % of control | dose: 100.0 mg/kg/injection, schedule: Q04DX003 (ip), vehicle: gum acacia 96 % of control | dose: 200.0 mg/kg/injection, schedule: Q04DX003 (ip), vehicle: gum acacia 96 % of control

CN(Cc1cnc2nc(N)nc(N)c2n1)c1c(Cl)cc(C(=O)NC(CCC(=O)O)C(=O)O)cc1Cl (stereo not drawn)
inactive: [6] 95 % of control | [8] 86 % of control
active: dose: 17.5 mg/kg/injection, schedule: Q01DX009 (ip), vehicle: saline 213 % of control | dose: 35.0 mg/kg/injection, schedule: Q01DX009 (ip), vehicle: saline 270 % of control | dose: 70.0 mg/kg/injection, schedule: Q01DX009 (ip), vehicle: saline 270 % of control | dose: 264.0 mg/kg/injection, schedule: Q04DX003 (ip), vehicle: saline with Tween-80 175 % of control | [11] 241 % of control | dose: 600.0 mg/kg/injection, schedule: Q04DX003 (ip), vehicle: saline with Tween-80 250 % of control

CN(C)C1C(=O)C(C(N)=O)=C(O)C2(O)C(=O)C3=C(O)c4c(O)cccc4C(C)(O)C3CC12.O.O.O.[Al] (stereo not drawn)
inactive: dose: 100.0 mg/kg/injection, schedule: Q01DX009 (ip), vehicle: Klucel (hydroxypropylcellulose) (HPC) 101 % of control | dose: 200.0 mg/kg/injection, schedule: Q01DX009 (ip), vehicle: Klucel (hydroxypropylcellulose) (HPC) 92 % of control | dose: 400.0 mg/kg/injection, schedule: Q01DX009 (ip), vehicle: Klucel (hydroxypropylcellulose) (HPC) 121 % of control

CN1C(=O)C(Br)=C(c2cccs2)C1=O
inactive: dose: 25.0 mg/kg/injection, schedule: Q01DX001 (ip), vehicle: saline with Tween-80 109 % of control | dose: 50.0 mg/kg/injection, schedule: Q01DX001 (ip), vehicle: saline with Tween-80 103 % of control

O=C(O)CC/C(=N/OCc1cc2c(cc1Cl)OCO2)C(=O)O
inactive: dose: 100.0 mg/kg/injection, schedule: Q04DX003 (ip), vehicle: saline sonified 100 % of control | dose: 200.0 mg/kg/injection, schedule: Q04DX003 (ip), vehicle: saline sonified 100 % of control | dose: 400.0 mg/kg/injection, schedule: Q04DX003 (ip), vehicle: saline sonified 109 % of control

COc1cc2cc3c4cc5c(cc4cc[n+]3c(C)c2cc1OC)OCO5 (tested in a mixture with another compound)
inactive: dose: 1.46 mg/kg/injection, schedule: Q04DX003 (ip), vehicle: saline 117 % of control
active: dose: 16.5 mg/kg/injection, schedule: Q04DX003 (ip), vehicle: saline 150 % of control | dose: 25.0 mg/kg/injection, schedule: Q04DX003 (ip), vehicle: saline 156 % of control and 159 % of control | dose: 44.0 mg/kg/injection, schedule: Q04DX003 (ip), vehicle: saline 168 % of control | dose: 50.0 mg/kg/injection, schedule: Q04DX003 (ip), vehicle: saline 160 % of control | dose: 66.0 mg/kg/injection, schedule: Q04DX003 (ip), vehicle: saline 177 % of control | dose: 100.0 mg/kg/injection, schedule: Q04DX003 (ip), vehicle: saline 163 % of control and 182 % of control

COc1cc(/C=N/N2CCCCC2)cc(OC)c1OC
inactive: [6] 100 % of control | [7] 100 % of control | [8] 90 % of control | [9] 100 % of control | [10] 100 % of control | [11] 90 % of control
